Assay results as given in patent publication US9868720B2 (Genentech, Inc., priority 2013, dated 2018).

What follows are compounds tested on phosphorylation of JNK in HEK293 cells stably transfected with doxycycline-inducible Flag-tagged full length DLK (assay: pJNK Cell based assay). Conditions: Homo sapiens; HEK293 cells with doxycycline-induced DLK, 5.5 hours compound treatment, pJNK mean intensity by imaging; read-out: p-JNK 293 IC50.
Method: pJNK Cell based assay:HEK293 cells stably transfected with doxycycline-inducible N-terminally Flag-tagged full length DLK were plated at density of 7500 cells/well (40 μL) in 384-well Greiner bio-one μclear plate coated with Poly-D-Lysine. The cells were incubated at 37° C. in DMEM (Dulbecco's Modified Eagle Medium) media containing 10% FBS and 2 mM L-Glutamine for 20-24 hours. 5 μL of 60 μM doxycycline was added to the cells to initiate DLK expression for 20 hours at 37° C. No doxycycline was added for the negative control wells. 5 μL of compounds of formula I in various concentrations in DMEM were added to the cells and the compound treated cell culture was incubated at 37° C. for 5.5 hours prior to fixation with addition of 50 μL 4% paraformaldehyde. The wells were washed with 40 μL PBS wash twice followed by permeabilization with 0.1% Triton X-100. The cells were washed with 40 μL PBS wash twice again prior to incubation in 20 μL SuperBlock (Thermo Scientific) for 1 hour at ambient temperature. The primary antibodies (1:3000 mouse anti-Flag and 1:1000 rabbit anti-pJNK in SuperBlock) were incubated with the fixed cells overnight at 4° C. The cells were washed with 40 μL PBS twice before the addition of secondary antibodies (Anti-mouse labeled with AlexaFluor555 and anti-rabbit labeled with AlexaFluor488 in 1:2000 dilution in SuperBlock). The secondary antibodies were incubated at ambient temperature for 2 hours and were protected from light. The cells were washed with 40 μL PBS before the addition of 20 μL Hoechst 33342 (1:5000 in PBS). The plate was sealed and stored at 4° C. in the dark until imaging analyses on Opera High Content Screening System (Evotec). Three data points were reported: pJNK (mean intensity inside the search stencil), DLK (mean intensity of the 1% brightest pixels inside the search stencil) and nuclear area.

Question: With N#CC1(C(=O)N2CCC(c3cc(Nc4cc(C(F)(F)F)ccn4)nc(N4CCC(F)(F)C4)n3)C2)CC1 (stereo not drawn) [1-{3-[2-(3,3-Difluoro-pyrrolidin-1-yl)-6-(4-trifluoromethyl-pyridin-2-ylamino)-pyrimidin-4-yl]-pyrrolidine-1-carbonyl}-cyclopropanecarbonitrile] as the compound, how does the IC50 read?
Answer: The IC50 was 584 nM.

Question: With Cc1c[nH]c(CN2CCC(c3cc(Nc4cc(C(F)(F)F)ccn4)nc(N4CC(F)(F)C4)n3)C2)n1 (stereo not drawn) [{2-(3,3-Difluoro-azetidin-1-yl)-6-[1-(4-methyl-1H-imidazol-2-ylmethyl)-pyrrolidin-3-yl]-pyrimidin-4-yl}-(4-trifluoromethyl-pyridin-2-yl)-amine] as the compound, how does the IC50 read?
Answer: Its IC50 is 418 nM.

Question: FC(F)(F)c1ccnc(Nc2cc(C3CCNCC3)nc(N3CC4CC3CO4)n2)c1 (stereo not drawn) [[2-(2-Oxa-5-aza-bicyclo[2.2.1]hept-5-yl)-6-piperidin-4-yl-pyrimidin-4-yl]-(4-trifluoromethyl-pyridin-2-yl)-amine] was tested. Which IC50 did it give?
Answer: The IC50 was 389 nM.

Question: With FC(F)(F)c1ccnc(Nc2cc(C3CCOCC3)nc(N3CCc4nc[nH]c4C3)n2)c1 [[2-(3,4,6,7-Tetrahydro-imidazo[4,5-c]pyridin-5-yl)-6-(tetrahydro-pyran-4-yl)-pyrimidin-4-yl]-(4-trifluoromethyl-pyridin-2-yl)-amine] as the compound, how does the IC50 read?
Answer: Its IC50 is 240 nM.

Question: For FC(F)(F)c1ccnc(Nc2cc(C3CCCNC3)nc(-c3ccccc3)n2)c1 (stereo not drawn) [(2-Phenyl-6-piperidin-3-yl-pyrimidin-4-yl)-(4-trifluoromethyl-pyridin-2-yl)-amine], which IC50 is on record?
Answer: Its IC50 is 1000 nM.

Question: For FC1(F)CCN(c2nc(Nc3cc(Cl)ccn3)cc(C3CCNCC3)n2)C1 [(4-Chloro-pyridin-2-yl)-[2-(3,3-difluoro-pyrrolidin-1-yl)-6-piperidin-4-yl-pyrimidin-4-yl]-amine], which IC50 is on record?
Answer: The IC50 was 113 nM.

Question: How did the IC50 turn out when CC(=O)N1CCC(C#N)(c2cc(Nc3cc(C(F)(F)F)ccn3)nc(N3CCC(F)(F)C3)n2)CC1 [1-Acetyl-4-[2-(3,3-difluoro-pyrrolidin-1-yl)-6-(4-trifluoromethyl-pyridin-2-ylamino)-pyrimidin-4-yl]-piperidine-4-carbonitrile] was run?
Answer: Its IC50 is 605 nM.

Question: How did the IC50 turn out when Cc1nccc(C2CCN(c3nc(Nc4cc(C(F)(F)F)ccn4)cc(C4CCOCC4)n3)C2)n1 (stereo not drawn) [[2-[3-(2-Methyl-pyrimidin-4-yl)-pyrrolidin-1-yl]-6-(tetrahydro-pyran-4-yl)-pyrimidin-4-yl]-(4-trifluoromethyl-pyridin-2-yl)-amine] was run?
Answer: The IC50 was 227 nM.

Question: Which IC50 does the source give for Cc1ccnc(Nc2cc(C3CCCN(C(=O)c4ccccc4)C3)nc(N3CCCC3)n2)c1 (stereo not drawn) [{3-[6-(4-Methyl-pyridin-2-ylamino)-2-pyrrolidin-1-yl-pyrimidin-4-yl]-piperidin-1-yl}-phenyl-methanone] here?
Answer: Its IC50 is 77.9 nM.
